One molecule from paper PMC6013247, “Preclinical characterization of INCB053914, a novel pan-PIM kinase inhibitor, alone and in combination with anticancer agents, in models of hematologic malignancies” (PLoS ONE, 2018) can be followed below.

Molecules are shown by their SMILES.

The target of one assay is IKKA (Homo sapiens, UniProt O15111). Put plainly: Kinase selectivity panel. Format: biochemical. Particulars: [ATP] = 1 mM.
The test system of a further assay is MM cell lines. Put plainly: Cell proliferation assay, all MM cell lines tested. It counts as cell-based. To be noted: read-out: mean GI50 values, range over all MM cell lines tested. The procedure:
The antiproliferative effects of INCB053914 on hematologic tumor cells were investigated using assays described in the Supporting Information (S2 File).
Cell proliferation assays. […] After 3 to 4 days, [^3H]-thymidine (1 μCi/well) (PerkinElmer) in PBS (10 μl) was added to the cell culture for an additional 12 hours. The incorporated radioactivity was separated by filtration with water through GF/B filters (Packard Bioscience, Meriden, Connecticut) and measured by liquid scintillation counting with a TopCount (Packard Bioscience).

In another assay the target is PIM3 (Homo sapiens, UniProt Q86V86). Description: PIM3 AlphaScreen kinase assay. It counts as biochemical. To be noted: 1 mM ATP; read-out: Mean (SD) IC50. Background: Bead proximity is the source of the signal in Alpha formats.
In another assay the target is NLK (Homo sapiens, UniProt Q9UBE8). Put plainly: Kinase selectivity panel. It counts as biochemical. Particulars: [ATP] = 1 mM.
Sequence of NLK (Q9UBE8 whole entry): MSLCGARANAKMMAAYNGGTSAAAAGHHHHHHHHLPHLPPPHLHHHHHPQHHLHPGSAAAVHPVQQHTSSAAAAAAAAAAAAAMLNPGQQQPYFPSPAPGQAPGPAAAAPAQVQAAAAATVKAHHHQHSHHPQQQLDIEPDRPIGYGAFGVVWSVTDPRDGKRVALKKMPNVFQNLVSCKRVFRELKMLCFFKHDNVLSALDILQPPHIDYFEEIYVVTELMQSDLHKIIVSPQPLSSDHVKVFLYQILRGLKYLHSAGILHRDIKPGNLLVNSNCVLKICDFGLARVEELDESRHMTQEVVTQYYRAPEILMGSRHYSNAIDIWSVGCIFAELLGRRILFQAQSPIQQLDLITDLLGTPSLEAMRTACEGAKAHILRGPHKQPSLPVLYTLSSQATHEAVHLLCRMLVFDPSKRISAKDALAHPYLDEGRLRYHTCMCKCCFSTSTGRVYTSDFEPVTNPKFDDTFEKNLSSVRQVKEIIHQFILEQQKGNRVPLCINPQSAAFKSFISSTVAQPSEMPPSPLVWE
The next assay has as its target DDR2 (Homo sapiens, UniProt Q16832). Put plainly: Kinase selectivity panel. It counts as biochemical. Particulars: [ATP] = 1 mM.
A further assay concerns the target GSK3B (Homo sapiens, UniProt P49841). Put plainly: Kinase selectivity panel. Format: biochemical. To be noted: [ATP] = 1 mM.
In a further assay the target is ROCK1 (Homo sapiens, UniProt Q13464). Description: Kinase selectivity panel. Particulars: [ATP] = 1 mM. It counts as biochemical.
Sequence of ROCK1 (Q13464 whole entry): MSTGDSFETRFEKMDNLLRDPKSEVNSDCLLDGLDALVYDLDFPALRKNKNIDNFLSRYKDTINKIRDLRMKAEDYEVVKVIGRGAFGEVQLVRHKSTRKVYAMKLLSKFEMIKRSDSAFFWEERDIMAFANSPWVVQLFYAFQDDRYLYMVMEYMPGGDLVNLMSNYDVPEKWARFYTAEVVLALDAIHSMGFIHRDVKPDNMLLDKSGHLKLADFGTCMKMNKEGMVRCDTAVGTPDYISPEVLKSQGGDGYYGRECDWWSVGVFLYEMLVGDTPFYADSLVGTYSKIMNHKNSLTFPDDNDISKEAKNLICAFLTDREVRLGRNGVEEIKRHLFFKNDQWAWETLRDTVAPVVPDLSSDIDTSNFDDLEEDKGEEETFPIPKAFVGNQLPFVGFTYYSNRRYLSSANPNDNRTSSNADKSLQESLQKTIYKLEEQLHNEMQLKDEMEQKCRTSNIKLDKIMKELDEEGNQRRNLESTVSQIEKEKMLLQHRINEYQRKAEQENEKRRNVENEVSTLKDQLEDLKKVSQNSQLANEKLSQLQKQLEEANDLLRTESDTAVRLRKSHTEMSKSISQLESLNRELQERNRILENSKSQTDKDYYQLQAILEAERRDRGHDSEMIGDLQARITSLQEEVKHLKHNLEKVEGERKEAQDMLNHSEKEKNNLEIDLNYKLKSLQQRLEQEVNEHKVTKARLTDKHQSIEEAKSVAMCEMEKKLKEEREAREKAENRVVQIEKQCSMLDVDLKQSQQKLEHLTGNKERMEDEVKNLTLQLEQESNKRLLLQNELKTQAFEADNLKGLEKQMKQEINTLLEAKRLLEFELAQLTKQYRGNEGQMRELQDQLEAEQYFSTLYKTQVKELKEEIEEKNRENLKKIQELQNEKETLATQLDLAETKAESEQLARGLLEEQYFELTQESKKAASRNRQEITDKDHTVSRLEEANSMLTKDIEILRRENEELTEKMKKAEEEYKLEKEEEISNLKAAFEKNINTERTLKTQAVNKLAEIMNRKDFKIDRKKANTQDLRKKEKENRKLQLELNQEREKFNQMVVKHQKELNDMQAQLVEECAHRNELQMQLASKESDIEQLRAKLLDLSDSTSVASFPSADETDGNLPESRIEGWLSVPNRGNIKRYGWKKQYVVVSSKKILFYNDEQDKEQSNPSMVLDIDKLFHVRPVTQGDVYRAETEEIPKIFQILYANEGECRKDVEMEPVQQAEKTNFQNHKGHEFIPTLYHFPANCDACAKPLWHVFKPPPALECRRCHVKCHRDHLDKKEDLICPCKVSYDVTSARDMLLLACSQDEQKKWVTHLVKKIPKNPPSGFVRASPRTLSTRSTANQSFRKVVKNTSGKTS
The target of another assay is PIM2 (Homo sapiens, UniProt Q9P1W9). Put plainly: PIM2 time-resolved fluorescence resonance energy transfer assay. Format: biochemical. To be noted: 1 mM ATP; read-out: Mean (SD) IC50. The procedure: The activity of INCB053914 against the PIM1 and PIM3 kinases was measured using AlphaScreen® assays (PerkinElmer, Inc., Shelton, Connecticut), and against PIM2 kinase using a time-resolved fluorescence resonance energy transfer assay (see Supporting Information, S1 File)
Sequence of PIM2 (Q9P1W9 whole entry): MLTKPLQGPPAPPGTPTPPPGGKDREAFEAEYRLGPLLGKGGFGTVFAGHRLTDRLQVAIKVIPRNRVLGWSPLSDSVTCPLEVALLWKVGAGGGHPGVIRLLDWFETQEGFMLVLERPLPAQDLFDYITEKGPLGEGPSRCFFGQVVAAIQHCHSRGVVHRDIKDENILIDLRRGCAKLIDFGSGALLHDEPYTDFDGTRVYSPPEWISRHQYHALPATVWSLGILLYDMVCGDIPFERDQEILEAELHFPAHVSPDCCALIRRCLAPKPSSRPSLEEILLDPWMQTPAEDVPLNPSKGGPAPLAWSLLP
Time-resolved fluorescence resonance energy transfer assay. Reactions (20 μl) were carried out in white 384-well polystyrene plates dotted with 0.8 μl of the compound in dimethylsulfoxide in the assay buffer (50 mM Tris, pH 7.5, 0.01% Tween-20, 5 mM MgCl2, 0.01% BSA, 5 mM dithiothreitol) containing 0.05 μM fluorescein-labeled CREBtide peptide substrate (Invitrogen), 1 mM ATP, and 1 nM PIM2 (Invitrogen). After 2 hours at 25°C, reactions were stopped with 10 μl RT-FRET dilution buffer (Invitrogen) supplemented with 30 mM EDTA and 1.5 nM LanthaScreen Tb-CREB pSer133 antibody (Invitrogen). After a 30-minute incubation at room temperature, plates were read on a PHERAstar FS plate reader (BMG Labtech).

The next assay deals with DYRK2 (Homo sapiens, UniProt Q92630). Description: Kinase selectivity panel. Particulars: [ATP] = 1 mM. Format: biochemical.
Sequence of DYRK2 (Q92630 whole entry): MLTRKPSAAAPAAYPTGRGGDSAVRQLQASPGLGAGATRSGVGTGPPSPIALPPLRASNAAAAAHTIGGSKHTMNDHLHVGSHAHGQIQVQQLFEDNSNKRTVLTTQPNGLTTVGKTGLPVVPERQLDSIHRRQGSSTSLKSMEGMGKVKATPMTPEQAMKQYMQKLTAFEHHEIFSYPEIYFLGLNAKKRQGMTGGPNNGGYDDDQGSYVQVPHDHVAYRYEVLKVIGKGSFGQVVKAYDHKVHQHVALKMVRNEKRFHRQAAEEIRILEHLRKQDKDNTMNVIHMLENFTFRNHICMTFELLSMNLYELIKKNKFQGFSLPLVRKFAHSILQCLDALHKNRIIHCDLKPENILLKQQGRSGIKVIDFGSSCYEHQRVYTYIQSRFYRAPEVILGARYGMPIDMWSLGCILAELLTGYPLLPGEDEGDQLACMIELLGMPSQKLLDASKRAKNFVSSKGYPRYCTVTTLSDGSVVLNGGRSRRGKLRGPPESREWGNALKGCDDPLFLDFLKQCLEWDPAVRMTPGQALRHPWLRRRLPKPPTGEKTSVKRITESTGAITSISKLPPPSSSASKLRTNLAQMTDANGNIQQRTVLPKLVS
The next assay has as its target PDGFR BETA (Homo sapiens, UniProt P09619). Description: Kinase selectivity panel. Particulars: [ATP] = 1 mM. Format: biochemical.
A further assay concerns the target CDK2 (Homo sapiens, UniProt P24941). Description: Kinase selectivity panel. It counts as biochemical. Particulars: [ATP] = 1 mM.
For the next assay, the system named is MOLM-16 (AML) xenografts. Description: Tumor growth in MOLM-16 (AML) xenograft. Format: in vivo, mouse. The procedure:
Female immune compromised (severe combined immunodeficiency [SCID]) mice (5–9 weeks of age; Charles River Laboratories, Wilmington, Massachusetts) were inoculated with MOLM-16, KG-1, or KMS-12-BM cells. A cell suspension in Dulbecco’s phosphate-buffered saline (DPBS) (1 × 10^8 cells/ml) was mixed 1:1 (v/v) with matrigel, and 200 μl was injected subcutaneously into the flank of each mouse. Studies of INCB053914 combination regimens used xenograft models derived from INA-6 (MM) cells or Pfeiffer (DLBCL) cells. INA-6 tumor fragments were injected subcutaneously as brei (100 μl in Hank’s balanced salt solution [HBSS, 1:10 v/v]) into the flank of each mouse; Pfeiffer tumor fragments (1 cm × 1 cm) were directly implanted. The treatment of tumor-bearing mice started 7 to 24 days after tumor inoculation for efficacy studies and approximately 14 to 27 days after tumor inoculation for pharmacodynamic studies.
For efficacy studies, mice were sorted to obtain approximately equivalent mean tumor volumes in each group. The starting mean tumor volume in efficacy studies for all groups ranged from 158 mm^3 to 249 mm^3, and groups consisted of eight or nine animals. The mean tumor volume in pharmacodynamic studies for all groups ranged from 114 mm^3 to 833 mm^3, and groups consisted of three to eight animals. […]
Tumor volume was calculated in two dimensions using the equation: volume = [length × (width^2)] / 2, where the larger number was length and the smaller number was width. Effects on tumor growth were reported as percent tumor growth inhibition calculated as (1 − [treatment volume / control volume]) × 100, where control volume was the vehicle/untreated tumor volume on a given day and treatment volume was any treatment group tumor volume on that same day. Statistical significance of differences between treatment and vehicle controls was assessed using analysis of variance single factor test.

A further assay concerns the target EPHB4 (Homo sapiens, UniProt P54760). Description: Kinase selectivity panel. Particulars: [ATP] = 1 mM. Format: biochemical.
Another assay addresses STK4 (Homo sapiens, UniProt Q13043). Description: Kinase selectivity panel. It counts as biochemical. To be noted: [ATP] = 1 mM.
The target in another assay is SRC (Homo sapiens, UniProt P12931). Put plainly: Kinase selectivity panel. Particulars: [ATP] = 1 mM. Format: biochemical.

Sequence of STK4 (Q13043 whole entry, species assumed): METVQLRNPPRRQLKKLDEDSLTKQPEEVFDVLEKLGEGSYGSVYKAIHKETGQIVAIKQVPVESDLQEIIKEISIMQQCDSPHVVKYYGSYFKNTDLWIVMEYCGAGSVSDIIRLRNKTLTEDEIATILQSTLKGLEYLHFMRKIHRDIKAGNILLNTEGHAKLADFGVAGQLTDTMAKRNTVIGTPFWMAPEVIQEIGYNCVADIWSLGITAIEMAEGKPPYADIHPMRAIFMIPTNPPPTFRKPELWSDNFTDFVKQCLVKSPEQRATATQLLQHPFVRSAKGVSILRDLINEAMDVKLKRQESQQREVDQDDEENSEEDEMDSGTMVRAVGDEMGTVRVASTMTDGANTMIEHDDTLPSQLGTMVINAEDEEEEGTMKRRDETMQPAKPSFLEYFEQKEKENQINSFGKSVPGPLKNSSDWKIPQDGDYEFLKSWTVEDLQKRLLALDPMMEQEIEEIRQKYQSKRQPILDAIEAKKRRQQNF
Sequence of DDR2 (Q16832 22-855): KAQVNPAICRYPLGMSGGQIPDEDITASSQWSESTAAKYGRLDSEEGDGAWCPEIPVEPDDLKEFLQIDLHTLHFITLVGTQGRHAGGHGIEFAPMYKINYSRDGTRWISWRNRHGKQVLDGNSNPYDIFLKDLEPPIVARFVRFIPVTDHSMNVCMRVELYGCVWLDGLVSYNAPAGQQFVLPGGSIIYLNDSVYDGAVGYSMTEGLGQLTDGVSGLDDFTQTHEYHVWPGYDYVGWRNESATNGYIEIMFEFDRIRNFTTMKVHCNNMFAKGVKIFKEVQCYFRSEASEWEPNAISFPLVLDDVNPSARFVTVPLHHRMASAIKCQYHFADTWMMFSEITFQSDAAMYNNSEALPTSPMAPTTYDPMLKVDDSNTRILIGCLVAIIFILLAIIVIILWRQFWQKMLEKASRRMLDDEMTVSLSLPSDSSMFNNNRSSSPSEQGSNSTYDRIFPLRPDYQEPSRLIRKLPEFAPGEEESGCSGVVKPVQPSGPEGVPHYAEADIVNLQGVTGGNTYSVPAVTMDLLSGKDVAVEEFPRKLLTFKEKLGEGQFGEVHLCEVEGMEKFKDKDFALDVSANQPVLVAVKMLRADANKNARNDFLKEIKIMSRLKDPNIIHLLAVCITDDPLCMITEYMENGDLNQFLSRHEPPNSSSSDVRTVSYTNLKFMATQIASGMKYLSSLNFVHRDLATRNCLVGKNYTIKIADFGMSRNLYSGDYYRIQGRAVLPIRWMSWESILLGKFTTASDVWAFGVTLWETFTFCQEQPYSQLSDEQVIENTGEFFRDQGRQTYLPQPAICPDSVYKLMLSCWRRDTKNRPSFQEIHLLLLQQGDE
Sequence of GSK3B (P49841 whole entry): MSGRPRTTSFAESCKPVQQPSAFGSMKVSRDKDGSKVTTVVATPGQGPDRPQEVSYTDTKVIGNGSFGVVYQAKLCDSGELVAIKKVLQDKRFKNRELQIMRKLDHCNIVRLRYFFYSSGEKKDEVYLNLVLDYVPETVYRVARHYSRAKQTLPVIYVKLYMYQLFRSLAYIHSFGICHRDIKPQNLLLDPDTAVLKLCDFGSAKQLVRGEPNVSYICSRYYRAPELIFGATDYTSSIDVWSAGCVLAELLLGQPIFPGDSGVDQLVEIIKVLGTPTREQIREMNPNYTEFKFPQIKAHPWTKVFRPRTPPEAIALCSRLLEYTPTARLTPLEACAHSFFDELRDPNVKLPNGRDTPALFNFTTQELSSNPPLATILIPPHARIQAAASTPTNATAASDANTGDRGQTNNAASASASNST
Method for PIM3: AlphaScreen assay. Reactions (20 μl) were carried out in white 384-well polystyrene plates (Greiner Bio-One, Kremsmünster, Austria) dotted with 0.8 μl of the compound in dimethylsulfoxide in the assay buffer (50 mM Tris, pH 7.5, 0.01% Tween-20, 5 mM MgCl2, 0.01% bovine serum albumin [BSA], 5 mM dithiothreitol) containing 0.05 μM Biotin-labeled Bcl-2–associated death promoter protein peptide substrate (AnaSpec, Fremont, California), 1 mM ATP, and 2.5 pM PIM1 (Invitrogen, Thermo Fisher Scientific, Waltham, Massachusetts), or 1.25 pM PIM3 (Millipore, Billerica, Massachusetts) enzyme. After 1 hour at 25°C, the reactions were stopped with 10 μl STOP Buffer (150 mM Tris, pH 7.5, 150 mM NaCl, 75 mM ethylenediaminetetraacetic acid [EDTA], 0.01% Tween-20, 0.3% BSA) supplemented with Phospho-Bad (Ser112) antibody (Cell Signaling Technology, Danvers, Massachusetts) diluted 666-fold, and Streptavidin donor beads (PerkinElmer, Waltham, Massachusetts), along with Protein-A acceptor beads (PerkinElmer, Akron, Ohio), at 15 μg/ml each. Supplementation of STOP buffer with beads and stopping the reactions were carried out under reduced light. […] After the reactions were stopped, the plates were incubated for 1 hour in the dark at room temperature and then read on a PHERAstar FS plate reader (BMG Labtech, Cary, North Carolina) under reduced light.

By IC50 is commonly meant the concentration at which inhibition is half-maximal. The GI50 is the concentration at which growth is held to half of that of the control. For the molecule `C[C@H]1CN(c2c(NC(=O)c3ccc(F)c(-c4c(F)cccc4F)n3)cnc3c2CC[C@H]3O)C[C@@H](N)[C@@H]1O.O=P(O)(O)O` [INCB053914, N-((R)-4-((3R,4R,5S)-3-amino-4-hydroxy-5-methylpiperidin-1-yl)-7-hydroxy-6,7-dihydro-5H-cyclopenta[b]pyridin-3-yl)-6-(2,6-difluorophenyl)-5-fluoropicolinamide phosphate], the IC50 is above 20 µM against IKKA; 0.12 nM on PIM3; above 20 µM against NLK; above 20 µM on DDR2; above 20 µM on GSK3B; above 20 µM on ROCK1. The IC50 was 30 nM on PIM2; above 20 µM against DYRK2; above 20 µM at PDGFR BETA; above 20 µM against CDK2; above 20 µM against EPHB4; above 20 µM against STK4. On SRC, this molecule gave an IC50 above 20 µM. Also, the GI50 in the assay on MM cell lines is 13.2 to 230 nM. Also, the “lowest dose at which tumor growth inhibition was apparent” value in the assay with MOLM-16 (AML) xenografts (MOLM-16 model) came to 1 mg/kg. Besides, the “maximal tumor growth inhibition” value with MOLM-16 (AML) xenografts (MOLM-16 tumors, 30 mg/kg twice a day orally) is 96%. In the assay on MOLM-16 (AML) xenografts (MOLM-16 tumors, 30 mg/kg twice a day, PR = ≥50% decrease in tumor volume vs treatment start, eight mice/group, 30 mg/kg), the “mice with a partial regression (PR)” value is given as “six of eight”.
